Experimental data as given in US11471460B2, “Autophagy modulators for use in treating cancer” (The United States of America,as represented by the …, priority 2017, dated 2022).
Read-outs that look alike come from different tables or passages of the source. Blank lines part the entries; values can stand above or below the compound they belong to.

Legend:
melanoma A375 cells [1] = experiment: A375 cell proliferation (crystal violet plate assay); format: cell-based, human
osteosarcoma U2OS cells = experiment: Induction of cytoplasmic vacuoles (enlarged lysosomes) in U2OS cells, light microscopy; format: cell-based, human; settings: for Concentration to induce LC3-II accumulation, inhibit proliferation or viability relative to concentration to observe vacuolization: same U2OS cells
Description: Vehicle is the concentration of DMSO that was introduced by addition of compounds.
These effects are dependent on the compound selected, its concentration and the length of time cells are exposed to the compound.
(§1) Cells were obtained from the American Type Culture Collection. BORCS5-KO HeLa cells have been described previously. Osteosarcoma U2OS were routinely seeded in 6-well plates (0.5×10^5 cells/well) and cultured in Dulbecco's Modified Eagle's medium supplemented with L-Glutamine, 4.5 g/L Glucose, Sodium Pyruvate, Phenol Red, and either heat-inactivated or normal 10% fetal calf serum at 37° C. in 5% CO2. Approximately 15-19 hours later, the indicated compound was added in 1:1000 dilutions. Results were the same using either heat-inactivated or normal fetal calf serum. Melanoma A375, embryonic kidney 293T and human foreskin fibroblast Hs27 cells were cultured in the same medium, except that cells were seeded into 12-well plates at 10^3 cells/well.
Phase contrast photographs were taken on an Olympus CKX41 microscope. Confocal photographs were taken on a Leica TCS-SP5II. For immunofluorescence microscopy, the cells were fixed in 4% paraformaldehyde (Electron Microscopy Sciences, 15714) in PBS for 12 min, permeabilized with 0.2% Triton X-100 in PBS for 10 min, and blocked in 0.2% BSA (Sigma-Aldrich, A7030) in PBS for 30 min at 37° C. For endogenous LC3 staining, cells were permeabilized in methanol for 20 min at −20° C. after the paraformaldehyde fixation. The cells were sequentially incubated with primary antibodies (LAMP1: Developmental Studies Hybridoma Bank; LC3 and LAMTOR4: Cell Signaling Technology; FLAG epitope: Sigma-Aldrich) and secondary antibodies conjugated to Alexa Fluor dyes (Life Technologies) diluted with 0.2% BSA in PBS for 30 min at 37° C. Coverslips were mounted on glass slides using Fluoromount-G (Electron Microscopy Sciences, 17984-24). Cells were imaged using a Zeiss LSM880 with AiryScan confocal microscope (Carl Zeiss AG, Oberkochen, Germany) or a Leica TCS-SP5II. The final composite images were created and properly analyzed for lysosomal size examination using ImageJ (NIH).

[2] = system: LC3-II and p62 in U2OS cells; experiment: Accumulation of autophagosome markers LC3-II and p62, Western immuno-blotting; format: cell-based, human; settings: U2OS cells
Procedure: Cells were cultured for 4 hrs before total cell extracts were subjected to Western immuno-blotting for LC3, p62 and β-actin. Blot was developed with film. […] (C) U2OS cells were cultured for the times indicated in the presence of 1.2 μM compound 1 to produce 80% of the maximum observed in FIG. 10A. Total cell extracts were assayed at the times indicated. […] All blots were stained with Ponceau S […].
Total cell lysates were prepared (in 4× dye). Proteins were fractionated at 200V in a NuPAGE 4-12% bis-tris polyacrylamide gel (NP0323, Novex) using NuPAGE MES running buffer (NP0002, Novex) and then stained with PageBlue (24260, Thermo Scientific) in order to quantify the relative amount of histones in each sample. […] Proteins were wet-transferred onto nitrocellulose membranes (162-0112, Bio-Rad) using NuPAGE transfer buffer (NP-0006-1, Novex) for 1 hour at 30V. Membranes were then stained with dilute Ponceau S solution, blocked in 5% milk for 30 minutes at room temperature, and incubated overnight at 4° C. in primary antibody. Membranes were washed with phosphate buffered saline with tween 20 (PBST) three times for 10 min. each, incubated with secondary antibodies in 5% milk for 1 hour, washed three times with PBST again, covered in ECL (SuperSignal West Pico chemiluminescent substrate, 34080, Thermo Scientific) and exposed to film (HyBlot ES, E3218, Denville Scientific).

embryonic kidney cells = experiment: Viability of embryonic kidney cells; format: cell-based; settings: Homo sapiens
Procedure: (§2) FIG. 18 summarizes results from 13 human cell lines. All cells were seeded at the same cell density in a rich culture medium and assayed under identical conditions. Compound 1 efficacy is the ratio of cell viability with compound 1 to cell viability with chloroquine derivatives.
as §1, with “Results were the same using either heat-inactivated or normal fetal calf serum.” left out

[3] = system: human foreskin fibroblasts; experiment: Proliferation/viability of human foreskin fibroblasts; format: cell-based; settings: Fibroblast
Procedure: Concentration of each compound in the plate assay is indicated below the compound 1 plate.
as §1, with “Results were the same using either heat-inactivated or normal fetal calf serum.” left out

[4] = system: breast adenocarcinoma cells; experiment: Viability of breast adenocarcinoma cells; format: cell-based; settings: Homo sapiens
Procedure: as §2

melanoma A375 cells [5] = experiment: Cytoplasmic vacuolization of A375 cells; format: cell-based, human
PIKFYVE = molecular target: T1, PIKFYVE (Homo sapiens, UniProt Q9Y2I7); experiment: DiscoverX KINOMEscan dissociation constant; format: binding
T1 construct: purchased DiscoverX (KINOMEscan service, San Diego, Calif.)
Procedure: Each kinase was tagged with a unique DNA sequence that allowed the amount of protein bound to the solid support to be quantified by PCR. The top three targets for compound 1 were PIKFYVE, PIP4K2C and MTOR. […] Dissociation constants (Kd) were determined from the amount of kinase captured on the solid support as a function of the test compound concentration (nM) on a log10 scale. Mean Kd values (±range) are given for each compound. The ratio of PIP4K2C to PIKFYVE indicates the relative specificity for these two kinases.
To address this hypothesis, a panel of 468 human kinases were screened for their ability to bind compound 1. […] The top two candidates were PIKFYVE (phosphoinositide kinase FYVE-type zinc finger containing) and PIP4K2C (phosphatidylinositol-5-phosphate 4-kinase). PIKFYVE is a kinase that is essential for mouse development (49) and that prevents endosome enlargement and cytoplasmic vacuolization (50, 51). PIP4K2C is a kinase that is not essential for mouse growth and viability, but it is essential for the immune system (52), mTORC1 signaling (53), and regulation of autophagy (54). The third candidate was MTOR, a kinase that regulates autophagy (55). Therefore, the binding constants (Kd) for all five members of the compound 1-family were determined for each of these three proteins from two independent titration curves, as shown for compound 1.

T1 sequence (Q9Y2I7 whole entry): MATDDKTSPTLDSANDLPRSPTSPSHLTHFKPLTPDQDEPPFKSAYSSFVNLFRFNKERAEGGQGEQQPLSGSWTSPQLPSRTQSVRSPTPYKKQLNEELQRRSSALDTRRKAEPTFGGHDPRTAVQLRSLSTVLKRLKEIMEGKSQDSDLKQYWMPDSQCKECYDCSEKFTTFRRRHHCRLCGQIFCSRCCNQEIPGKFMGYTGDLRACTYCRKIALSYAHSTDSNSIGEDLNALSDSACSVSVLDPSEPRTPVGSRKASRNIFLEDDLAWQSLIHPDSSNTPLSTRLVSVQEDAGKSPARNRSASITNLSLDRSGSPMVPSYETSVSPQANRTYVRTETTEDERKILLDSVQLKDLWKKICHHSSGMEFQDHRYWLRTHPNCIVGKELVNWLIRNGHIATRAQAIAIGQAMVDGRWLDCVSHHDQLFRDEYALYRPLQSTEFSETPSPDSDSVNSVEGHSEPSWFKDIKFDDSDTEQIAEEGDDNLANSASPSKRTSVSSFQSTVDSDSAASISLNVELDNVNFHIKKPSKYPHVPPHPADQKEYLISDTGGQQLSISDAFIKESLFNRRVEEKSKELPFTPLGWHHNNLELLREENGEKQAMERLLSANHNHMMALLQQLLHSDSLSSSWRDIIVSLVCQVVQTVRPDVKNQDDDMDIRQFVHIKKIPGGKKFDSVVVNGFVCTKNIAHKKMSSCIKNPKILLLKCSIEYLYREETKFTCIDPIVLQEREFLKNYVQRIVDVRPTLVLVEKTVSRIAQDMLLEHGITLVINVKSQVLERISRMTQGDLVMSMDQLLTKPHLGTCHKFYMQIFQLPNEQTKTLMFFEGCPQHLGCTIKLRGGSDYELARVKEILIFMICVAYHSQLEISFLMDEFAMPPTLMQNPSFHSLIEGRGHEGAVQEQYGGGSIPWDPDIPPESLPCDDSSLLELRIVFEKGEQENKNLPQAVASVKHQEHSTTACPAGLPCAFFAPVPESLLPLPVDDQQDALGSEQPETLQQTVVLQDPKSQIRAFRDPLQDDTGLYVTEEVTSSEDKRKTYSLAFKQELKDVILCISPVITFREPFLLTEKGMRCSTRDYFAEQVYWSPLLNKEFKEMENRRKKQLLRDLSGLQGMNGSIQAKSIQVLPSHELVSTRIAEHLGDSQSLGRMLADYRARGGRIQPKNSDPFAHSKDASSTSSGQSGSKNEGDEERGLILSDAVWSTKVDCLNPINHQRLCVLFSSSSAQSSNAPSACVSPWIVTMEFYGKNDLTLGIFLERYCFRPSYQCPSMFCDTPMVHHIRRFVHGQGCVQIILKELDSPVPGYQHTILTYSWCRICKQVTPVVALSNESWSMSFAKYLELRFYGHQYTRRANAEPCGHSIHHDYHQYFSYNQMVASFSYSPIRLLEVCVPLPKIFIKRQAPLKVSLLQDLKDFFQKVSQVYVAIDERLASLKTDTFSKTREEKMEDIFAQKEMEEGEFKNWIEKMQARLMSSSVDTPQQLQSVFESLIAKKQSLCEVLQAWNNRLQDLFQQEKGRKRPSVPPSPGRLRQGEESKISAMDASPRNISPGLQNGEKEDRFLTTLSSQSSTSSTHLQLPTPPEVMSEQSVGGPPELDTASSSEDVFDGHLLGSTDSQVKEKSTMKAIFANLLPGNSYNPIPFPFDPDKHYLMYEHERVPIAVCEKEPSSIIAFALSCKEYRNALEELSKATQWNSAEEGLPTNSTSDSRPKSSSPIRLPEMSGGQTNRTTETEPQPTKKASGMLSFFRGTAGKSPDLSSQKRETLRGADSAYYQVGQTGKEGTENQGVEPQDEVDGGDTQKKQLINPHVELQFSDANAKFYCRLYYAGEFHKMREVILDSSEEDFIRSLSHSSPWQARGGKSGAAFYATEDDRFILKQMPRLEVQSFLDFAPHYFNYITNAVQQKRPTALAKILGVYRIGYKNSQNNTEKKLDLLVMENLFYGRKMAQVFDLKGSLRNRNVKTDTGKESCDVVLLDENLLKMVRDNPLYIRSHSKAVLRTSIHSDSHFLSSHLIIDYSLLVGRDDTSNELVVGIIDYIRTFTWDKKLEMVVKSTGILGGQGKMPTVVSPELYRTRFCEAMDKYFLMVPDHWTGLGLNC

Compound: Cc1cccc(/C=N/Nc2cc(N3CCOCC3)nc(OCCc3ccccn3)n2)c1 [Apilimod]
Inhibition of proliferation of melanoma A375 cells (melanoma A375 cells [1]): effective

Compound: CO/C1=C\C(C)=C\[C@@H](C)[C@@H](O)[C@@H](C)C/C(C)=C/C=C/[C@H](OC)[C@@H]([C@@H](C)[C@@H](O)[C@H](C)[C@@]2(O)C[C@@H](O)[C@H](C)[C@@H](C(C)C)O2)OC1=O [BafA1, Bafilomycin-A1, reference compound]
Induction of vacuoles / enlarged lysosomes (osteosarcoma U2OS cells; U2OS cells): did not induce formation of enlarged lysosomes
Effect on vacuole accumulation induced by the compounds of the invention (osteosarcoma U2OS cells; U2OS cells, BafA1 together with compound 1): prevented induction of vacuole accumulation
Accumulation of LC3-II [2]: induced the accumulation of LC3-II

EC50 [4]: > 10 µM
Compound: CCN(CC)CCCC(C)Nc1ccnc2cc(Cl)ccc12 (stereo not shown) [CQ, chloroquine]
Inhibition of proliferation of melanoma A375 cells (melanoma A375 cells [1]): inhibited A375 cell proliferation
EC50 (embryonic kidney cells): > 10 µM
EC50 ([3]; Homo sapiens): > 10 µM
Cytoplasmic vacuolization of A375 cells (melanoma A375 cells [5]): not observed

EC50 ([4]; breast adenocarcinoma cells, read-out: EC50): > 10 µM
Compound: CCN(CCO)CCCC(C)Nc1ccnc2cc(Cl)ccc12 (stereo not shown) [HCQ, hydroxychloroquine]
Inhibition of proliferation of melanoma A375 cells (melanoma A375 cells [1]): inhibited A375 cell proliferation
EC50 (embryonic kidney cells; embryonic kidney cells, read-out: EC50): > 10 µM
EC50 ([3]; human foreskin fibroblasts, read-out: EC50): > 10 µM
Cytoplasmic vacuolization of A375 cells (melanoma A375 cells [5]): not observed

Compound: Ic1cccc(/C=N/Nc2nc(N3CCOCC3)nc(N(c3ccccc3)c3ccccc3)n2)c1 [Vacuolin]
Inhibition of proliferation of melanoma A375 cells (melanoma A375 cells [1]): effective

Compound: Nc1ccc(C(=O)Nc2cccc(-c3nc(N4CCOCC4)c4oc5ncccc5c4n3)c2)cn1 [YM201636]
Inhibition of proliferation of melanoma A375 cells (melanoma A375 cells [1]): effective

Compound: Fc1ccc(Nc2nc(N3CCOCC3)nc(N3CCOCC3)n2)cc1Cl [compound 2]
Concentration to induce LC3-II accumulation, inhibit proliferation or viability relative to concentration to observe vacuolization (osteosarcoma U2OS cells): two to three-fold

Kd (PIKFYVE; mean of two independent titration curves): 0.016 µM
Compound: CCc1ccc(Nc2nc(N3CCOCC3)nc(N3CCOCC3)n2)cc1 [compound 3]
Concentration to induce LC3-II accumulation, inhibit proliferation or viability relative to concentration to observe vacuolization (osteosarcoma U2OS cells): two to three-fold

Standing within the family for PIKFYVE binding (PIKFYVE): the most specific
Compound: Cc1cccc(/C=N/Nc2cc(N3CCOCC3)nc(N3CCOCC3)n2)c1 [compound 4]
Concentration to induce LC3-II accumulation, inhibit proliferation or viability relative to concentration to observe vacuolization (osteosarcoma U2OS cells): about 10 fold

Compound: C(=N\Nc1cc(N2CCOCC2)nc(N2CCOCC2)n1)/c1ccccc1 [compound 5]
Concentration to induce LC3-II accumulation, inhibit proliferation or viability relative to concentration to observe vacuolization (osteosarcoma U2OS cells): about 15 fold
